Test results taken from US4528377A, “Substituted 3,4-diamino-1,2,5-thiadiazoles having histamine H2 -receptor antagonist activity” (Bristol-Myers Company, priority 1983, dated 1985).

Tests used:
gastric acid secretion = assay: Gastric antisecretory activity in the gastric fistula rat; assay type: in vivo, Long Evans rats; details: sc, relative to cimetidine
peptic ulcer disease = details: clinical evaluation, Gray et al., Lancet, 1, 8001 (1977); cited from earlier work
histamine H2-receptors = target: T1, histamine H2-receptors (Cavia porcellus, UniProt P47747); assay: Histamine H2-receptor antagonism, isolated guinea pig right atria assay; assay type: cell-based, Hartley strain guinea pigs; details: for Kb: Schild plot, 30-minute incubation, 95% confidence limits in parentheses, read-out: KB (dissociation constant); for Potency Ratio (cimetidine = 1.0): relative to cimetidine
T1 construct: The spontaneously beating right atrium was dissected free from other tissues; from tissue; host or cells: isolated right atrium of male Hartley strain guinea pigs
Method: Subsequent investigations by Hughes and Coret, Proc. Soc. […] Black et al., Agents and Actions, 3, 133 (1973) and Brimblecombe et al., Fed. […] The present comparative studies were carried out using a modification of the procedure reported by Reinhardt et al., Agents and Actions, 4, 217 (1974).
The spontaneously beating right atrium was dissected free from other tissues and a silk thread (4-0) attached to each end. […] Atrial contractions were recorded isometrically by means of a Grass FT 0.03 force displacement transducer and recordings of contractile force and rate were made with a Beckman RP Dynograph.

T1 sequence (P47747 whole entry): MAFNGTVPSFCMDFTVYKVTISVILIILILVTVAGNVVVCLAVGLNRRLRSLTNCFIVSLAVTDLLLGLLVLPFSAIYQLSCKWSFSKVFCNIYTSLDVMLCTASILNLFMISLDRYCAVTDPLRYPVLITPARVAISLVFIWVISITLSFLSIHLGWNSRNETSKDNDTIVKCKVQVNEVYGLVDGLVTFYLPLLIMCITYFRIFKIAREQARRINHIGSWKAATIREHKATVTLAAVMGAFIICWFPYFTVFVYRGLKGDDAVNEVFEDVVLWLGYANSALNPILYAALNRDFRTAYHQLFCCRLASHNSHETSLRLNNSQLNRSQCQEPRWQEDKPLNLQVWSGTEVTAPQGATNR

## Cc1cc(CSCCNc2nsnc2N)sc1CN(C)C [Example 3, 3-Amino-4-{2-[(5-dimethylaminomethyl-4-methyl-2-thienyl)methylthio]ethylamino}-1,2,5-thiadiazole]
Gastric acid secretion
  Potency Ratio (cimetidine = 1.0): ~ 7

## CN/C(=N/CCSCc1nc[nH]c1C)NC#N [cimetidine]
Peptic ulcer disease
  effect in treatment of peptic ulcer disease: effective therapeutic agent in the treatment of peptic ulcer disease

## CN(C)Cc1ccc(CSCCNc2nsnc2N)o1 [Example 2, 3-Amino-4-{2-[(5-dimethylaminomethyl-2-furyl)methylthio]ethylamino}-1,2,5-thiadiazole]
Gastric acid secretion
  Potency Ratio (cimetidine = 1.0): 4.5

## Nc1nsnc1NCCCOc1cccc(CN2CCCC2)c1 [Example 4, 3-Amino-4-[3-(3-pyrrolidinomethylphenoxy)propylamino]-1,2,5-thiadiazole]
Gastric acid secretion
  Potency Ratio (cimetidine = 1.0): 20
Histamine H2-receptors
  Kb: 4 nM
  Potency Ratio (cimetidine = 1.0): 102

## Nc1nsnc1NCCCOc1cccc(CN2CCCCC2)c1 [Example 1, 3-Amino-4-[3-(3-piperidinomethylphenoxy)propylamino]-1,2,5-thiadiazole]
Gastric acid secretion
  Potency Ratio (cimetidine = 1.0): 37
Histamine H2-receptors
  Kb: 3 nM
  Potency Ratio (cimetidine = 1.0): 137
